Experiment: Release of QX-314 into water through dialysis membrane (HPLC)
Format: physicochemical
Details: dialysis membrane in 20 ml ultrapure water; FIG. 6
Experimental: High Performance Liquid Chromatography (HPLC) was used to assess the amount of QX-314 remaining in the supernatant after complexing with the NPs. The conditions for HPLC were as follows. The mobile phase consisted of 50 mM phosphate buffer, with 0.16% triethylamine, pH 4.0 buffer:methanol:acetonitrile=60:30:10 vol/vol/vol. The chromatographic conditions were: 30 μL of solution injected, 40° C. constant temperature, flow rate of 0.3 ml/min, and wavelength detection of 210 nm. The column used was a Supelco C18 Column 25 cm×4.6 mm.
The DPPC:PA (mass ratio=1:1) nanoparticles were complexed with QX-314 by incubating 0.5 mg of QX-314 with 1 mL of 0.25% (w/v) lipid solution in a 37° C. room on a gentle shaker. After 1 hour, the formulation was transferred to a dialysis membrane and incubated in 20 ml of ultrapure water. The amount of QX-314 released into the water was measured as a function of time using HPLC as described above. Aqueous solution of QX-314 in dialysis membrane was used as the control. A representative image of positively charged molecule (QX-314) complexed with negatively charged lipid (L-α-phosphatidic acid) is shown below.

burst release of QX-314 (time): ≤ 3 h
Compound: CC[N+](CC)(CC)CC(=O)Nc1c(C)cccc1C [QX-314 solution, QX-314]
